Source: patent publication USRE30451E, “Novel process for producing antibiotics bleomycin” (priority 1969, dated 1980)

Tests used:
[1] = system: Ehrlich ascites carcinoma cells; assay: Life-prolongation effect and toxicity in mice inoculated with ascites type Ehrlich carcinoma; settings: mouse, in vivo
[2] = tumour-inoculated ICR/JCL mice, intraperitoneally once a day for 10 days, doses 25 mg/kg to 0.19 mg/kg, Behres-Karber's method, observed up to 50 days
[3] = system: Ehrlich ascites carcinoma cells; settings: for ED50: maximum dose level at which mice survive 100 to 200 percent of control survival days, intraperitoneally once a day for 10 days, doses 25 mg/kg to 0.19 mg/kg; for anti-tumor effect (in words): mouse, in vivo

Row | SMILES | toxicity (in words) [1] | LD50 [2] | ED50 [3] | anti-tumor effect (in words) [3]
1 | Cc1c(N)nc([C@H](CC(N)=O)NC[C@H](N)C(N)=O)nc1C(=O)N[C@H](C(=O)N[C@H](C)[C@@H](O)[C@H](C)C(=O)N[C@H](C(=O)NCCc1nc(-c2nc(C(=O)NCCCNCCCCN)cs2)cs1)[C@@H](C)O)[C@@H](O[C@@H]1O[C@@H](CO)[C@@H](O)[C@H](O)[C@@H]1O[C@@H]1O[C@H](CO)[C@@H](O)[C@H](OC(N)=O)[C@@H]1O)c1cnc[nH]1 [Compound 7, Bleomycin A5, reference compound] | less in toxicity | 15.6 | 0.19 | strong in anti-tumor property
2 | Cc1c(N)nc(C(CC(N)=O)NCC(N)C(N)=O)nc1C(=O)NC(C(=O)NC(C)C(O)C(C)C(=O)NC(C(=O)NCCc1nc(-c2nc(C(=O)NCCCNC(C)c3ccccc3)cs2)cs1)C(C)O)C(OC1OC(CO)C(O)C(O)C1OC1OC(CO)C(O)C(OC(N)=O)C1O)c1cnc[nH]1 (stereo not shown) [Compound 35, 3-(1-phenylethyl)-aminopropyl-amino-bleomycin] | less toxicity | – | 0.19 | excellent in effect
3 | Cc1c(N)nc([C@H](CC(N)=O)NC[C@H](N)C(N)=O)nc1C(=O)N[C@H](C(=O)N[C@H](C)[C@@H](O)[C@H](C)C(=O)N[C@H](C(=O)NCCc1nc(-c2nc(C(=O)NCCCCN=C(N)N)cs2)cs1)[C@@H](C)O)[C@@H](O[C@@H]1O[C@@H](CO)[C@@H](O)[C@H](O)[C@@H]1O[C@H]1O[C@H](CO)[C@@H](O)[C@H](OC(N)=O)[C@@H]1O)c1cnc[nH]1 [Compound 3, Bleomycin B2, reference compound] | – | 7.5 | 0.78 | –
4 | Cc1c(N)nc(C(CC(N)=O)NCC(N)C(N)=O)nc1C(=O)NC(C(=O)NC(C)C(O)C(C)C(=O)NC(C(=O)NCCc1nc(-c2nc(C(=O)NCCCNCCCN(C)C)cs2)cs1)C(C)O)C(OC1OC(CO)C(O)C(O)C1OC1OC(CO)C(O)C(OC(N)=O)C1O)c1cnc[nH]1 (stereo not shown) [Compound 21] | – | 10.3 | 0.19 | –
5 | Cc1c(N)nc(C(CC(N)=O)NCC(N)C(N)=O)nc1C(=O)NC(C(=O)NC(C)C(O)C(C)C(=O)NC(C(=O)NCCc1nc(-c2nc(C(=O)NCCCNCCCNC(C)c3ccccc3)cs2)cs1)C(C)O)C(OC1OC(CO)C(O)C(O)C1OC1OC(CO)C(O)C(OC(N)=O)C1O)c1cnc[nH]1 (stereo not shown) [Compound 15] | – | 13.1 | 0.39 | –
